Patent publication US9981950B2, “Triazoles as NR2B receptor inhibitors” (Janssen Pharmaceuticals, Inc., priority 2014, dated 2018)

How the values were obtained:
rat NR1/NR2B receptor [1] = target: T1, rat NR1/NR2B receptor (Rattus norvegicus (Rat), UniProt P35439+Q00960); test: RRNR2BB: inhibition of specific binding to the rat NR1/NR2B receptor; conditions: [3H]-Ifenprodil binding, rat brain membranes, Hill-plot 2-parameter-model
Method in brief: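 Washed membranes from male Wistar rat forebrain (whole brain minus cerebellum) in 5 mM Tris/1 mM EDTA pH 7.4 used in ifenprodil-site binding, 60 min at 4° C. Nonspecific binding defined with […] CP101.606; bound separated by filtration on PEI-soaked filters. IC50 from Hill plot, 2-parameter model.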

[2] = target: cloned human NR1/NR2B ion channels (Homo sapiens (Human), UniProt Q05586+Q13224); test: HNR2BC: calcium influx assay on cloned human NR1/NR2B ion channels expressed in HEK cells; type: cell-based; conditions: HEK cells hNR1/NR2B, 100 μM glutamate + 100 μM glycine, 3 parameter plot
Experimental: HNR2BC: Effects of Test Articles on Cloned Human NR1/NR2B Ion Channels Expressed in Mammalian Cells
The ability of test compounds to act as an antagonist of NR1/NR2B were evaluated with a calcium influx assay (Calcium 5 Assay Kit, Molecular Devices).
For the antagonist assessment, NR1/NR2B was activated with the positive control agonist (Mg^2+-free HBPS+100 μM glutamic acid+100 μM glycine). The effect of each test article to inhibit the signal was examined after agonist stimulation and compared to the positive control antagonist (MK-801).
A HEK cell line, stable transfected with hNR1/NR2B was used. This tetracycline inducible cell line is transfected with GRIN1 (GeneBank accession number NM 007327.2) and GRIN2B (GeneBank accession number NM_000834.3.). The cells were cultured in cell culture flasks with DMEM/F12 supplemented with 10% FCS, 1% PenStrep and a selection of additional antibiotics.
Forty-Eight (48) hours before the assay the cells were plated into 96-well black well, flat clear bottom microtiter plates at a density of 50000 cells/well. Twenty-Four (24) hours later the receptor expression was induced by the addition of 1 μg/ml tetracycline in the presence of 2 mM ketamine and 200 μM 7-CKA. After 24 h of receptor induction the plates were used for the assay.
The medium was removed and the cells were loaded with 200 μl loading buffer (Molecular Devices) in Mg2+-free HBPS containing 100 μM 7-CKA at 37° C. for one (1) hour.
The test compounds were then solubilized in 100% DMSO and diluted to yield eight (8) different concentrations in 100% DMSO. A 96 well drug plate was prepared by diluting with water and glycine/glutamate to a 5-fold of final test concentration. Fluorescence intensity of the cells in the plate was measured in a FlexStation using an excitation wavelength of 485 nm and an emission wavelength of 525 nm. Twenty (20) seconds after starting the recordings the compounds together with the agonists glycine (100 μM) and glutamate (100 μM) were added into the wells and the fluorescence measured for ninety (90) seconds in summary.
The IC50 values provided in the paragraph below were determined using a 3 parameter plot.

rat NR1/NR2B receptor [3] = target: T1, rat NR1/NR2B receptor; test: NR2B binding assay: inhibition of specific [3H]-Ifenprodil binding to the rat NR1/NR2B receptor; conditions: rat brain membranes, Hill-plot 2-parameter-model
Method in brief: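 Nonspecific binding was defined with […] CP101.606, and bound radioactivity was separated by filtration over PEI-soaked filters. IC50 was fitted with a Hill-plot 2-parameter model.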

Chain of cloned human NR1/NR2B ion channels (Q13224 27-1484, other chains not shown): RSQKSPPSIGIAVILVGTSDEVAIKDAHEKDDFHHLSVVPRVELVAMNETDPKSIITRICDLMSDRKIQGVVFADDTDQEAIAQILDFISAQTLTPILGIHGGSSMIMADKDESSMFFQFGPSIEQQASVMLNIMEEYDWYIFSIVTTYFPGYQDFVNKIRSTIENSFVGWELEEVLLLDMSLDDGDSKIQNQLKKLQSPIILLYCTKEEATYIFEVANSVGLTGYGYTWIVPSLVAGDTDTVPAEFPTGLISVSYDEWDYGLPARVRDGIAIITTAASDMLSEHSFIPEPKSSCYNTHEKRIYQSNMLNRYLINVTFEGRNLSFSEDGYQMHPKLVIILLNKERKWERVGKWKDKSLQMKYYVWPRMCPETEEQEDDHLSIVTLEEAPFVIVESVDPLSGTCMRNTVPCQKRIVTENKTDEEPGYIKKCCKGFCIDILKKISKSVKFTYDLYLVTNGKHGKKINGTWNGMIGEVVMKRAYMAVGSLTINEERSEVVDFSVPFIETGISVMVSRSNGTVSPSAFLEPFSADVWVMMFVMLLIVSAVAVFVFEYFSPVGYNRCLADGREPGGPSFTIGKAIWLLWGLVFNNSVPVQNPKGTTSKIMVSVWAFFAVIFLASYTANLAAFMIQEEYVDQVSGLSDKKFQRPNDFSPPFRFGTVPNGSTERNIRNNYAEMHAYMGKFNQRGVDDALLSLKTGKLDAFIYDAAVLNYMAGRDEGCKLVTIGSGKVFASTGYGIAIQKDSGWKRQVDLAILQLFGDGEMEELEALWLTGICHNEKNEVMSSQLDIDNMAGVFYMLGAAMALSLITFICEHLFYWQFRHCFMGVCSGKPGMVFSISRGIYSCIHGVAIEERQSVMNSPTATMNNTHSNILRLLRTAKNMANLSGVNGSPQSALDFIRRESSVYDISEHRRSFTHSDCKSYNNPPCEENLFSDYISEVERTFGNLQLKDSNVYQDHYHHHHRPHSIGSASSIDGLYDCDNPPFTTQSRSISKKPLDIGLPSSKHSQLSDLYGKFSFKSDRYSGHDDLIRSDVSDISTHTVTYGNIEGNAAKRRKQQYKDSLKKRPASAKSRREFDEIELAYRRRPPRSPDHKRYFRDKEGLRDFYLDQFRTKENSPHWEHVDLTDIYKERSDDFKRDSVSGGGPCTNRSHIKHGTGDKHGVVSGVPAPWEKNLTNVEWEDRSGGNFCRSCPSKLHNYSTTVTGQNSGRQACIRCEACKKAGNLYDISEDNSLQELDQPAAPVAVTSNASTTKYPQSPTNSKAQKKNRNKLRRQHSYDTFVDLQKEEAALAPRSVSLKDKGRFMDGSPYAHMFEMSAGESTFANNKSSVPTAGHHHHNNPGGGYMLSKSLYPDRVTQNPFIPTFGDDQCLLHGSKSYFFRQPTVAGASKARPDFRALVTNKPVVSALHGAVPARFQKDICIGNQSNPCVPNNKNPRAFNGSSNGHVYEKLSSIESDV
T1 sequence (Q00960 27-1482, other chains not shown): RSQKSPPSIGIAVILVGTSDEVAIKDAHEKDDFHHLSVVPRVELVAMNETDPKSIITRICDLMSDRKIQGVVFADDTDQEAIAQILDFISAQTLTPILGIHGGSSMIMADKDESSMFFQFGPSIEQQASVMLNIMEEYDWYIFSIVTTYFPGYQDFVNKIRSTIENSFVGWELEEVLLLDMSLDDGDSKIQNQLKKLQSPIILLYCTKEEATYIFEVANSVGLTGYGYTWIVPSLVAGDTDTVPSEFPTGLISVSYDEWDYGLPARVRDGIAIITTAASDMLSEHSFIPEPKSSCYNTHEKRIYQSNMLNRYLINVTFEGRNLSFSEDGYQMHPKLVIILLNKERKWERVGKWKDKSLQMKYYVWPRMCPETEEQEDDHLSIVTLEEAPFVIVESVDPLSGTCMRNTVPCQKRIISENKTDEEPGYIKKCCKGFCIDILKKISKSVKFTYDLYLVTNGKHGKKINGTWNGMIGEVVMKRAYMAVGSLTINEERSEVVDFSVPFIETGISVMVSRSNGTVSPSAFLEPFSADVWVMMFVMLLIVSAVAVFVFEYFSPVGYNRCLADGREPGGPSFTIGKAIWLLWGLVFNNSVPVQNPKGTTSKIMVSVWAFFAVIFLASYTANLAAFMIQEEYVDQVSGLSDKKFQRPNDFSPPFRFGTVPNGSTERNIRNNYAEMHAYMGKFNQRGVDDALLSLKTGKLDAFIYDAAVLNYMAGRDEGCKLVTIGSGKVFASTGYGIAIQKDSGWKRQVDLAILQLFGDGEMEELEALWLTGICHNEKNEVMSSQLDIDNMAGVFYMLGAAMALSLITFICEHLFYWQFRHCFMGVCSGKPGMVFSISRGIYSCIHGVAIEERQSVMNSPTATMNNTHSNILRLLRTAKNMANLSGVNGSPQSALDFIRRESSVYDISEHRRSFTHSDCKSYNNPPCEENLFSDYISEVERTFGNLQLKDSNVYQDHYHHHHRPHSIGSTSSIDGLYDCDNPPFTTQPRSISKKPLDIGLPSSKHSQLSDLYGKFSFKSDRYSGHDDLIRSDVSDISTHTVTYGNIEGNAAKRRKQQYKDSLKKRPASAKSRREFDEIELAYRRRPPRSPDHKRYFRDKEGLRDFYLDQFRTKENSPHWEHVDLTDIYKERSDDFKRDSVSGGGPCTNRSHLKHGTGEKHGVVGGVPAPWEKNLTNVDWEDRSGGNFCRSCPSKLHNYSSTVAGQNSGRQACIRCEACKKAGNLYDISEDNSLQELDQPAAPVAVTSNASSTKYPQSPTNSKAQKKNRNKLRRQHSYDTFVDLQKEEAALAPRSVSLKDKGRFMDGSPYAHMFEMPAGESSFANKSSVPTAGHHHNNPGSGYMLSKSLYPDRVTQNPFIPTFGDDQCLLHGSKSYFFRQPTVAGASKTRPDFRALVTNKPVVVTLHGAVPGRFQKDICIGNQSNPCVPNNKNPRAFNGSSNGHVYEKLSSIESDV

| SMILES | IC50 (rat NR1/NR2B receptor [1]) | IC50 [2] | IC50 (rat NR1/NR2B receptor [3]) |
| --- | --- | --- | --- |
| CC(C)c1nccn1Cc1cn(-c2ccc(Cl)cc2)nn1 [Example 23, 1-(4-Chloro-phenyl)-4-(2-isopropyl-imidazol-1-ylmethyl)-1H-[1,2,3]triazole] | 77.4 nM | 17500 nM | 77.4 nM |
| Cc1nccn1Cc1cn(-c2ccc(F)c(C(F)F)c2)nn1 [Example 81, 1-(3-Difluoromethyl-4-fluoro-1-phenyl)-4-(2-methyl-imidazol-1-ylmethyl)-1H-[1,2,3]triazole] | 3.83 nM | 3790 nM | 3.83 nM |
| Fc1ccc(-n2cc(Cn3ccnc3C3CC3)nn2)cc1C(F)F [Example 82, 4-(2-Cyclopropyl-imidazol-1-ylmethyl)-1-(3-difluoromethyl-4-fluoro-phenyl)-1H-[1,2,3]triazole] | 16.2 nM | 4890 nM | 16.2 nM |
| CC(C)c1nccn1Cc1cn(-c2ccc(F)c(C(F)F)c2)nn1 [Example 84, 1-(3-Difluoromethyl-4-fluoro-phenyl)-4-(2-isopropyl-imidazol-1-ylmethyl)-1H-[1,2,3]triazole] | 11 nM | 4200 nM | 11 nM |
| Cc1nccn1Cc1cn(-c2ccc(Cl)c(OC(F)F)c2)nn1 [Example 93, 1-(4-Chloro-3-difluoromethoxy-phenyl)-4-(2-methyl-imidazol-1-ylmethyl)-1H-[1,2,3]triazole] | 1.2 nM | 410 nM | 1.2 nM |
| OCCc1nccn1Cc1cn(-c2ccc(F)c(OC(F)F)c2)nn1 [Example 101, 1-(3-Difluoromethoxy-4-fluoro-phenyl)-4-[2-(2-hydroxy-ethyl)-imidazol-1-ylmethyl]-1H-[1,2,3]triazole] | 4.26 nM | 1650 nM | 4.26 nM |
| Cn1nccc1Cc1cn(-c2ccc(F)c(Cl)c2)nn1 [Example 109, 1-(3-Chloro-4-fluoro-phenyl)-4-(2-methyl-2H-pyrazol-3-ylmethyl)-1H-[1,2,3]triazole] | 4320 nM | 109000 nM | 4320 nM |
| Nc1nccn1Cc1cn(-c2ccc(Cl)c(C(F)F)c2)nn1 [Example 113A, 4-(2-amino-imidazol-1-ylmethyl)-1-(4-chloro-3-difluoromethyl-phenyl)-1H-[1,2,3]triazole] | 0.65 nM | 840 nM | 0.65 nM |
| Nc1nccn1Cc1cn(-c2ccc(F)c(C(F)F)c2)nn1 [Example 113B, 4-(2-amino-imidazol-1-ylmethyl)-1-(4-fluoro-3-difluoromethyl-phenyl)-1H-[1,2,3]triazole] | 0.48 nM | 660 nM | 0.48 nM |
| CC(F)(F)c1cc(-n2cc(Cn3ccnc3N)nn2)ccc1F [Example 114] | 0.51 nM | 2340 nM | 0.51 nM |
